From ChEMBL document CHEMBL1201862, “PubChem BioAssay data set” (2004)
Calls of active or inactive are those of the source.

Experiments:
HEK293 [1] = test: cells; settings: Homo sapiens
HEK293 [2] = test: cells; settings: Homo sapiens; remark: listed apart in the source
[3] = decrease of insulin promoter-GFP reporter – imaging, high-content screening, mouse beta cells (AID 1628); type: functional; settings: MIN6
[4] = MIN6 cell viability loss – mouse insulinoma, cytotoxicity control, dose response (AID 2122); type: functional;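 also: confirmatory high-throughput counterscreen run to flag cytotoxic compounds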
[5] = molecular target: T1, Short transient receptor potential channel 4 (Mus musculus, UniProt Q9QUQ5); test: block of DAMGO-driven TRPC4 calcium entry – cell-based, HEK293 TRPC4/mu-opioid, Fluo-4 calcium, dose response (AID 434942); type: functional;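 also: potency of inhibitors blocking the TRPC4 calcium response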
T1 sequence (Q9QUQ5 whole entry): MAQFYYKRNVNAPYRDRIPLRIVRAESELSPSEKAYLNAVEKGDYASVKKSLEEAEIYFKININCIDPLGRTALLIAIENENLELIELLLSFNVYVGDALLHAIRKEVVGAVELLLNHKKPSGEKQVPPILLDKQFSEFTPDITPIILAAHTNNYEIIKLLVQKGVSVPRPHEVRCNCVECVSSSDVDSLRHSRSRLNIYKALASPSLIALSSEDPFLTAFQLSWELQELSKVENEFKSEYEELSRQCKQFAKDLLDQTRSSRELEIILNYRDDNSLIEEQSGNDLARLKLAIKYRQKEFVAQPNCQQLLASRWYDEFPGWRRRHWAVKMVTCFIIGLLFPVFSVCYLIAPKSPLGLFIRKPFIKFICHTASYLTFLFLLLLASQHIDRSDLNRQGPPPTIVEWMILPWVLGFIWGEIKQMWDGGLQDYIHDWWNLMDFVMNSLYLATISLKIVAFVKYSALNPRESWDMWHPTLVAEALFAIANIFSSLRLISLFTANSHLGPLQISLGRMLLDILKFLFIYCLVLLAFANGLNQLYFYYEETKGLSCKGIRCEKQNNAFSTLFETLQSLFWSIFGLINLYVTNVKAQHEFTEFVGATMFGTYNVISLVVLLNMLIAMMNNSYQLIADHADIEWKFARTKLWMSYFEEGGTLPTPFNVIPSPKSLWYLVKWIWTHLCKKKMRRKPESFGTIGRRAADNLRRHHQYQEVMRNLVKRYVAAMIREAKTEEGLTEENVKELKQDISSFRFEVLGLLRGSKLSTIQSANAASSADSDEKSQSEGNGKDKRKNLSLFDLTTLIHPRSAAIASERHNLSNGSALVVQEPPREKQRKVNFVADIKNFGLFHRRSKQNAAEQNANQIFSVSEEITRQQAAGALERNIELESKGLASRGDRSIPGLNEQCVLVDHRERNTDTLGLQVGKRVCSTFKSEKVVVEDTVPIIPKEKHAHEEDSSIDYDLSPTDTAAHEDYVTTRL

HEK293 [6] = test: inhibition of NOD1-driven NF-kB reporter – cell-based, luminescence, uHTS, primary screen (AID 1578); type: functional; settings: Homo sapiens
[7] = molecular target: Peroxisome proliferator-activated receptor gamma/Nuclear receptor coactivator 1 (Homo sapiens, UniProt P37231); test: TR-FRET dose response biochemical High Throughput Screening assay for agonists of the steroid receptor coactivator 1 (SRC-1) recruitment by the peroxisome proliferator-activated receptor gamma (PPAR gamma): non-selective agonists. [Related pubchem assays (depositor defined):AID1300, AID1808, AID504735, AID631]; type: protein assay
HEK293 [8] = test: cells; type: functional, cell-based; settings: Homo sapiens
[9] = molecular target: Peroxisome proliferator-activated receptor gamma/Nuclear receptor coactivator 3 (Homo sapiens, UniProt P37231); test: TR-FRET dose response biochemical High Throughput Screening assay for agonists of the steroid receptor coactivator 3 (SRC-3) recruitment by the peroxisome proliferator-activated receptor gamma (PPAR gamma): non-selective agonists. [Related pubchem assays: 1301 (Confirmation screen.), 1048 (Primary screen.)]; type: functional
HEK293 [10] = test: cells; type: functional, cell-based; settings: Homo sapiens; remark: listed apart in the source
[11] = molecular target: Nucleotide-binding oligomerization domain-containing protein 2 (Homo sapiens, UniProt Q9HC29); test: inhibition of NOD2-driven NF-kB reporter – cell-based, luminescence, uHTS, HEK293 (AID 1566); type: functional
Nucleotide-binding oligomerization domain-containing protein 2, sequence (Q9HC29 whole entry, the tested form may be a part): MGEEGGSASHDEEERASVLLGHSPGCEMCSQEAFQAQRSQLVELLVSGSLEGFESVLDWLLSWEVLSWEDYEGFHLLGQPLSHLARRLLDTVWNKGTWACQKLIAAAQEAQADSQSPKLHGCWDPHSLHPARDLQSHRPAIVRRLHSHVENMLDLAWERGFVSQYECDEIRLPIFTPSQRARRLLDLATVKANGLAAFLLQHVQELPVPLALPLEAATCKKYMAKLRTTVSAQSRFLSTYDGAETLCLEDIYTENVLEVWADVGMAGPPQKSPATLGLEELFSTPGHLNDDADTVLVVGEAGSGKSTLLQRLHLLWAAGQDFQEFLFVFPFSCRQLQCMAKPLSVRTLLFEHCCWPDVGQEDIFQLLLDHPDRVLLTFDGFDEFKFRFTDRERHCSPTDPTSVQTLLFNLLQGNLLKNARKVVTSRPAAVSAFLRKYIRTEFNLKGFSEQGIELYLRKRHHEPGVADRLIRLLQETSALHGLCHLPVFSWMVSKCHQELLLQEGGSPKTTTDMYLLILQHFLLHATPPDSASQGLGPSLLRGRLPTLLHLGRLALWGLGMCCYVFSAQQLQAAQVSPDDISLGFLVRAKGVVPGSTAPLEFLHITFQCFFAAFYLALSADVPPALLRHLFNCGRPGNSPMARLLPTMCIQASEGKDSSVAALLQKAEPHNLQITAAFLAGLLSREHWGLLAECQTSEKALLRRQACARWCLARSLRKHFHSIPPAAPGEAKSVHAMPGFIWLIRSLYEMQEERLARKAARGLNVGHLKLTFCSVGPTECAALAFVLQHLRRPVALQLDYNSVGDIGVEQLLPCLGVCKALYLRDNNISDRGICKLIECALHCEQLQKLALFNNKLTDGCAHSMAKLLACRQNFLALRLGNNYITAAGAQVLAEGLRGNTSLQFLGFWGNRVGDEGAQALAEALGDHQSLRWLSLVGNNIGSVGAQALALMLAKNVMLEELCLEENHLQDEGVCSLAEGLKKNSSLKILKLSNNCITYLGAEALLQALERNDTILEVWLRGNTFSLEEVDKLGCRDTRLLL

HEK293 [12] = test: NOD2 signaling inhibitors in MDP-stimulated cells, cell-based, uHTS, luminescence (AID 2001); type: functional; settings: Homo sapiens
HEK293 [13] = test: cells; type: functional, cell-based; settings: Homo sapiens; remark: listed apart in the source
[14] = molecular target: Peroxisome proliferator-activated receptor gamma/Nuclear receptor coactivator 2 (Homo sapiens, UniProt P37231); test: TR-FRET dose response biochemical High Throughput Screening assay for agonists of the steroid receptor coactivator 2 (SRC-2) recruitment by the peroxisome proliferator-activated receptor gamma (PPAR gamma): non-selective agonists. [Related pubchem assays: 1297, 1032 ]; type: functional
Cytochrome P450 2D6 = Cytochrome P450 2D6 (Homo sapiens, UniProt P10635);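 also: CYP2D6 member of a cytochrome P450 panel assay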
Cytochrome P450 2D6, sequence (P10635 whole entry): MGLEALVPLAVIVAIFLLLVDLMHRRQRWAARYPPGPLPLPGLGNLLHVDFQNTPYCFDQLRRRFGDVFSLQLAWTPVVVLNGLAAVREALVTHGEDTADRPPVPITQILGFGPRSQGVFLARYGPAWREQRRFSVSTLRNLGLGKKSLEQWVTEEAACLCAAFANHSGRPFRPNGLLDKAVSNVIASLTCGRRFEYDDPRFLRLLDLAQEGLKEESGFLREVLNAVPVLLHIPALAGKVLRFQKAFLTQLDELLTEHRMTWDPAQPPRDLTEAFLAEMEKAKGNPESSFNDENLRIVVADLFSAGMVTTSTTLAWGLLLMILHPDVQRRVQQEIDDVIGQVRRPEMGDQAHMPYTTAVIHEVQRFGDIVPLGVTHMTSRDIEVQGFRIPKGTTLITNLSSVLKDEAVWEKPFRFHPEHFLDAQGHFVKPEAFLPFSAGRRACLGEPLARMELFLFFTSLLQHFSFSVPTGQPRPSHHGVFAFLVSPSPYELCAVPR

[15] = tested on: Streptococcus sp. 'group A'; test: Streptococcus pyogenes SK(-)GAS viability under kanamycin – luminescence, BacTiterGlo, confirmation, counter-screen for streptokinase expression inhibitor project, dose response (AID 1900); type: functional, organism-based
Streptokinase A = molecular target: T2, Streptokinase A (Streptococcus pyogenes serotype M1, UniProt P10520); test: viability-normalized secreted streptokinase activity reduction – plasminogen activation absorbance, OD405, dose response (AID 1914); type: functional, Streptococcus pyogenes M1 GAS;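 also: secreted streptokinase activity via plasminogen activation per viability signal from cell pellet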
T2 sequence (P10520 whole entry): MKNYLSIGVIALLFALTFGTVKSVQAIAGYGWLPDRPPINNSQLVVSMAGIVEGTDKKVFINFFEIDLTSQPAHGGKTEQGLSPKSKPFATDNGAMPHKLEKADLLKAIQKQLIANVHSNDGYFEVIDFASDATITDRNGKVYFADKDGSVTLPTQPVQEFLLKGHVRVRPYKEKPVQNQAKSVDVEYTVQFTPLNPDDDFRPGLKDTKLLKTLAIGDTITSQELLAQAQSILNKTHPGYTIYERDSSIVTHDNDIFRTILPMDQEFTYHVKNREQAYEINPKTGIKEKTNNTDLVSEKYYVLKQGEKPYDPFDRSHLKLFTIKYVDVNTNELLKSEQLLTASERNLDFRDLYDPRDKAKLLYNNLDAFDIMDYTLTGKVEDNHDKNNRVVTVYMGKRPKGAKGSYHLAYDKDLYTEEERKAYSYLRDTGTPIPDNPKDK

[16] = molecular target: T3, Calpain-2 catalytic subunit (Sus scrofa, UniProt P43367); test: m-calpain protease blockers, concentration series – biochemical, fluorogenic peptide substrate, dose response (AID 1420); type: functional
T3 sequence (P43367 whole entry): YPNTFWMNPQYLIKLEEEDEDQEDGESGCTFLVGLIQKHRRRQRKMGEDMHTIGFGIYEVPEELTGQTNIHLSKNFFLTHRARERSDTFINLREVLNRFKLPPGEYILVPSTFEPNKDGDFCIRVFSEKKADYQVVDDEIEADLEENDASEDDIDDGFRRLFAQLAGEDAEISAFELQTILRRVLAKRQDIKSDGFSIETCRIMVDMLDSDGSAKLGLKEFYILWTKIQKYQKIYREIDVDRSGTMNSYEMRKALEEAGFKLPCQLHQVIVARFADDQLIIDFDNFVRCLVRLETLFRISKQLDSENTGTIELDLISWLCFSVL

Streptococcus = test: GAS UMAA2166 growth inhibition – luminescence, BacTiterGlo, counter-screen for streptokinase expression inhibitor project, dose response (AID 1915); type: functional, organism-based;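 also: potency for reduction of bacterial viability or growth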
Fatty acid synthase [17] = molecular target: T4, Fatty acid synthase (Homo sapiens, UniProt P49327); test: inhibition of human FAS-TE enzyme activity – biochemical, endpoint fluorescence intensity, uHTS hits, dose response (AID 624327); type: functional;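 also: fluorescence from hydrolysis of an O-methyl fluorescein acyl ester substrate by the enzyme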
Fatty acid synthase [18] = molecular target: T4, Fatty acid synthase; test: inhibition of human FAS-TE enzyme activity – biochemical, kinetic fluorescence intensity, dose response (AID 624326); type: functional;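 also: rate of fluorescence rise from hydrolysis of a fluorogenic O-methyl fluorescein ester substrate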
SUMO E1/E2 = SUMO E1/E2 (Homo sapiens, UniProt P63279+Q9UBE0+Q9UBT2); test: SAR analysis of SUMOylation using HTRF in an in-Vitro dose response assay. [Related pubchem assays (depositor defined):AID2006, AID2011, AID2018, AID2069, AID2658]; type: functional
SUMO E1/E2, sequence (Q9UBE0 whole entry): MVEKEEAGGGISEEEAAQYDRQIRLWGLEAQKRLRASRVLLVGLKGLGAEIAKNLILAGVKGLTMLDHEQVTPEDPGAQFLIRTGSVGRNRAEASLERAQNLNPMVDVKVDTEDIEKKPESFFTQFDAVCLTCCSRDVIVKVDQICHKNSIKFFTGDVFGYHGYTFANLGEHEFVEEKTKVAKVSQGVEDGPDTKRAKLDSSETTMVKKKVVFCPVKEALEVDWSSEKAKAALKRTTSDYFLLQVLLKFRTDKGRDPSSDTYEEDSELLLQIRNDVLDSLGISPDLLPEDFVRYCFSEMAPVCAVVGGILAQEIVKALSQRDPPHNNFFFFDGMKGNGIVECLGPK
SUMO E1/E2, sequence (Q9UBT2 whole entry): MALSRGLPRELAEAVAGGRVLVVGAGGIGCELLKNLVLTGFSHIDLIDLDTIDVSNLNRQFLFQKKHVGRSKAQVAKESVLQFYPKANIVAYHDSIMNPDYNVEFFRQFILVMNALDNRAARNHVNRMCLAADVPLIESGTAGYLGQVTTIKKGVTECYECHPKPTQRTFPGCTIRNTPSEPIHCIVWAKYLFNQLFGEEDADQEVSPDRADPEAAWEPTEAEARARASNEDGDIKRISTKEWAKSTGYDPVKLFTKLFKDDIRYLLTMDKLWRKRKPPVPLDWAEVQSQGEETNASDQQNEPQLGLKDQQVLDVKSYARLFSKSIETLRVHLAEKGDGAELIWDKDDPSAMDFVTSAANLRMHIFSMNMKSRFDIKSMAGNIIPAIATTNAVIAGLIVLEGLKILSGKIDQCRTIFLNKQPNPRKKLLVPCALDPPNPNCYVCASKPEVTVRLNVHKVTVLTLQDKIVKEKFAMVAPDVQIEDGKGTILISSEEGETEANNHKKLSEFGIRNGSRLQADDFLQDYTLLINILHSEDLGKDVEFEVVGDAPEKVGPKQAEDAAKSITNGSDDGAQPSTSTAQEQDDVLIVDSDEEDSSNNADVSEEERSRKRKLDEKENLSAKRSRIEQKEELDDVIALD
SUMO E1/E2, sequence (P63279 whole entry): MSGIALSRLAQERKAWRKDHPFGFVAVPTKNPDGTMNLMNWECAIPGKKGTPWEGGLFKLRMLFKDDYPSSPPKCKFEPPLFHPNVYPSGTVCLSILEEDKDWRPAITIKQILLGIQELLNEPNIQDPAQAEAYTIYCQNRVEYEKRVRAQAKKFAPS

Cytochrome P450 3A4 = Cytochrome P450 3A4 (Homo sapiens, UniProt P08684);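 also: CYP3A4 tested as one member of a cytochrome P450 panel screen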
Cytochrome P450 3A4, sequence (P08684 whole entry): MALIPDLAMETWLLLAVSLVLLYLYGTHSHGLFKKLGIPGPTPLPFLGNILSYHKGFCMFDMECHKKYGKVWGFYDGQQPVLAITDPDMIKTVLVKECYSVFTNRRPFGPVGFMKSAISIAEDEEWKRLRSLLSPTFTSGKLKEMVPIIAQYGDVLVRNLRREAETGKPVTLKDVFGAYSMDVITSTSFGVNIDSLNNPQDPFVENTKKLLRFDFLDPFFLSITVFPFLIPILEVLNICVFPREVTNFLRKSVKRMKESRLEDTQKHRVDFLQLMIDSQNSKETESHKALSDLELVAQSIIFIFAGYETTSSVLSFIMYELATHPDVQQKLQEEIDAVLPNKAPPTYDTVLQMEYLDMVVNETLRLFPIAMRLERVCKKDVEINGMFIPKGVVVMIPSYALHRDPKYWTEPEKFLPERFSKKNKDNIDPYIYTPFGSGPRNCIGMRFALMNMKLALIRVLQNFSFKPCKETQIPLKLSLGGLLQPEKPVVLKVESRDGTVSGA

[19] = molecular target: Neurotensin receptor type 1 (Homo sapiens, UniProt P30989); type: functional;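 also: Image-based confirmatory dose-response assay measuring agonist activity at NTR1; NTR1-expressing U2OS osteosarcoma cells imaged for beta-arrestin GFP spot formation; agonist potency where compounds increase beta-arrestin recruitment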
Neurotensin receptor type 1, sequence (P30989 whole entry, the tested form may be a part): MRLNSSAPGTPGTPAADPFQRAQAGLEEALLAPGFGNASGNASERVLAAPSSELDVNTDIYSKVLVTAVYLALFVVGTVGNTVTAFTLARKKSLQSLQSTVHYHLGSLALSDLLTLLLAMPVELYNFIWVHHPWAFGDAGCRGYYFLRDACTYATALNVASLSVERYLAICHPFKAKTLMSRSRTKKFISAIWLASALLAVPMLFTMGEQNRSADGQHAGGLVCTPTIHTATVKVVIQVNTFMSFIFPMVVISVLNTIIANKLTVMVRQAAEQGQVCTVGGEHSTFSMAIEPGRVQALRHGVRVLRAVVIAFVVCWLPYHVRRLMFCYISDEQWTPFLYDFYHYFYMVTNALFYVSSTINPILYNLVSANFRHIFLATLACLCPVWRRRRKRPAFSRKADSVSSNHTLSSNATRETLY

[20] = blockers of HIV-1 envelope-mediated cell-cell fusion – cherry-pick, dose response (AID 652057); type: functional, cell-based
[21] = viability loss in CEM21 cells – cell-based, CellTiter-Glo luminescence, cherry-picked, cytotoxicity control for viral fusion inhibitor project, dose response (AID 652042); type: functional;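 also: potency for signal decrease meaning cytotoxicity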
[22] = HIV-1 AD8 envelope cell-cell fusion blockers – cherry-pick, dose response (AID 652062); type: functional, cell-based;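 also: luciferase signal from cell-cell fusion driven by HIV-1 clade B AD8 Env; potency is for inhibitors of fusion seen as a drop in luminescence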
[23] = molecular target: T5, Voltage-gated N-type calcium channel alpha-1B subunit/Amyloid beta A4 precursor protein-binding family A member 1 (Homo sapiens, UniProt Q00975+Q02410); test: disruptors of Mint-PDZ/N-type channel peptide interaction – biochemical, HTRF, set 2, SAR follow-up (AID 434980); type: functional
[24] = molecular target: T5, Voltage-gated N-type calcium channel alpha-1B subunit/Amyloid beta A4 precursor protein-binding family A member 1; test: disruptors of Mint-PDZ/N-type channel peptide interaction – biochemical, HTRF, SAR follow-up (AID 2489); type: functional
SUMO-activating enzyme [25] = molecular target: T6, SUMO-activating enzyme (Homo sapiens, UniProt Q9UBT2); test: blockers of UBC9-mediated SUMO conjugation – biochemical, AlphaScreen, SUMOylation inhibitor project, confirmation (AID 2018); type: functional
T6 sequence (Q9UBE0 whole entry): as the sequence (Q9UBE0 whole entry) above
T6 sequence (Q9UBT2 whole entry): as the sequence (Q9UBT2 whole entry) above

SUMO-activating enzyme [26] = molecular target: T6, SUMO-activating enzyme; test: blockers of SAE1/SAE2–UBC9 SUMO transfer – biochemical, HTRF, uHTS, primary screen (AID 2006); type: protein-complex assay
[27] = molecular target: T7, Carboxy-terminal domain RNA polymerase II polypeptide A small phosphatase 1 (Homo sapiens, UniProt Q9GZU7); test: CTDSP1 inhibitors, concentration-response, biochemical, absorbance readout, ultra-high-throughput screen actives (AID 540297); type: functional
T7 sequence (Q9GZU7 whole entry): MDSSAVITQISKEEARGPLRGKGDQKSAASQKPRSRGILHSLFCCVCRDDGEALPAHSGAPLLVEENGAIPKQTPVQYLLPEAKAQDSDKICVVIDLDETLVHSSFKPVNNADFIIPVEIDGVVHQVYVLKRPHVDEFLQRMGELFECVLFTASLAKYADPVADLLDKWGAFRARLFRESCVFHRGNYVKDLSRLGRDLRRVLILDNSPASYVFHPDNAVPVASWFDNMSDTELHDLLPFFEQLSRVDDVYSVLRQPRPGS

COC(=O)c1ccc(CSc2ncnc3c2sc2nc(N4CCOCC4)c4c(c23)CCCC4)o1
EC50 (HEK293 [1]): > 59.7 µM (inactive)
EC50 (HEK293 [2]): > 59.7 µM (inactive)

O=C(CN1CCN(C(c2ccccc2)c2ccccc2)CC1)NC(=O)NCc1ccco1
IC50 [3]: 0.468 µM (active)
IC50 [4]: 0.439 µM (active)

Nc1cc(=O)nc(SCC(=O)N2CCN(c3ccccc3)CC2)n1-c1ccc(F)cc1
EC50 [5]: 6.68 µM (active)

O=C(CSc1ncnc2c1oc1ccccc12)N1CCCc2ccccc21
EC50 (HEK293 [6]): 5.08 µM (active)
EC50 [7]: > 79.4 µM (inactive)
IC50 (HEK293 [8]): 4.86 µM (active)
EC50 [9]: > 79.4 µM (not active)
IC50 (HEK293 [10]): 9.45 µM (active)
EC50 [11]: 11.9 µM (active)
IC50 (HEK293 [12]): 5.25 µM (inactive)
IC50 (HEK293 [13]): > 20 µM (inactive)
EC50 [14]: 85.1 µM (not active)

Cc1sc2ccccc2[n+]1CCC(=O)O
AC50 (Cytochrome P450 2D6): inconclusive

CCOC(=O)c1cnc(-n2nc(C)cc2C)nc1Nc1ccc(C)cc1
IC50 [3]: 2.56 µM (active)
EC50 [15]: 3.44 µM (active)
IC50 [4]: 7.89 µM (active)
EC50 (Streptokinase A): > 150 µM (not active)
IC50 [16]: 5.74 µM (not active)
EC50 (Streptococcus): > 150 µM (not active)

COc1ccc(C(Nc2ccccn2)c2c(NC(=O)c3ccco3)sc(C)c2C)cc1OC (stereo not drawn)
EC50 [5]: 1.19 µM (active)

O=c1c2ccccc2nc(SCc2ccc([N+](=O)[O-])cc2)n1CCCO
EC50 [5]: 0.376 µM (active)
IC50 (Fatty acid synthase [17]): 10.2 µM (active)
IC50 (Fatty acid synthase [18]): 5.59 µM (active)

Nc1ccc2c(c1)C1C=CCC1C(c1ccccc1)N2 (stereo not drawn)
IC50 (SUMO E1/E2): > 100 µM (inactive)

C[C@@H]1/C=C\CC(=O)OC[C@H]2O[C@@H](C=C[C@@H]2O)[C@H](C)/C=C\CC(=O)OC1
AC50 (Cytochrome P450 3A4): 5.01 µM (inconclusive)
AC50 (Cytochrome P450 2D6): inconclusive

CCc1nc2ccccc2c(C(=O)OCC(=O)Nc2cccc(S(=O)(=O)N3CCOCC3)c2)c1C
EC50 (HEK293 [6]): 5.64 µM (active)
IC50 (HEK293 [8]): 4.01 µM (active)
IC50 (HEK293 [10]): 9.75 µM (active)
EC50 [11]: 12.8 µM (active)
IC50 (HEK293 [12]): 5.81 µM (inactive)
IC50 (HEK293 [13]): > 20 µM (inactive)
EC50 [19]: 10.2 µM (active)
AC50 [20]: 44.6 µM (active)
AC50 [21]: 31.5 µM (active)
AC50 [22]: 13.9 µM (active)

O=C(COC(=O)c1cc(-c2ccco2)nc2ccccc12)NCc1ccc(F)cc1
IC50 (SUMO E1/E2): 4.64 µM (active)
IC50 [23]: 11.1 µM (active)
IC50 [24]: 30.4 µM (active)

COc1ccccc1NC(=O)Cn1c(O)c(N=NC(=O)c2ccccc2O)c2ccccc21
IC50 (SUMO-activating enzyme [25]): 6.52 µM (active)
IC50 (SUMO-activating enzyme [26]): 23.8 µM (active)
IC50 (SUMO E1/E2): 71.1 µM (active)
IC50 [27]: 2.74 µM (active)

Cc1ccc(OCCn2cnc3c(N)ncnc32)cc1
EC50 (HEK293 [1]): > 59.6 µM (inactive)
EC50 (HEK293 [2]): > 59.6 µM (inactive)

CC1CCc2nc(NC(=O)CSc3nc4ccccc4o3)sc2C1 (stereo not drawn)
EC50 (HEK293 [6]): 5.78 µM (active)
IC50 (HEK293 [8]): 3.36 µM (active)
IC50 (HEK293 [10]): 15.4 µM (active)
EC50 [11]: > 20 µM (inactive)
IC50 (HEK293 [12]): 5.28 µM (active)
IC50 (HEK293 [13]): > 20 µM (inactive)
